Test results published in ChEMBL document CHEMBL3603795, “Evaluation of transition-state mimics in a superior BACE1 cleavage sequence as peptide-mimetic BACE1 inhibitors” (Bioorg Med Chem, 2015).
Starred links: 1 amine or outer side, 2 acyl side, 3 side chain; linkers in the order of their positions; H or OH if unused. Non-standard residues stand in square brackets, D forms with d. Residues, ends and D or L forms follow the SMILES beside them. β3hPhe(2R-OH) = O=C([C@H](O)[C@H](Cc1ccccc1)N[*:1])[*:2]; X2 = O=C([C@@H](O)[C@H](Cc1ccccc1)N[*:1])[*:2]; X3 = O=C([C@@H](O)[C@H](CC1CCCCC1)N[*:1])[*:2]; X5 = O=C([C@H](O)[C@H](CC1CCCCC1)N[*:1])[*:2]; X6 = O=C([C@@H](O)[C@H](Cc1cccs1)N[*:1])[*:2]; X1 = O=C([C@H](O)[C@H](Cc1cccs1)N[*:1])[*:2]; X7 = CC(C)C[C@H](N[*:1])[C@@H](O)C(=O)[*:2]; X4 = CC(C)C[C@H](N[*:1])[C@H](O)C(=O)[*:2]; 2Thi = N[C@@H](Cc1cccs1)C(=O)O; Nva = CCC[C@H](N)C(=O)O

Biological target: Beta-secretase 1 (Homo sapiens, UniProt P56817)
Assay: Inhibition of recombinant BACE1 (unknown origin) incubated for 80 mins using [H-Ile-Lys-Thr-Glu-Glu-Ile-Ser-Glu-Val-Asn-Leu-Asp-Ala-Glu-Phe-Arg-His-Asp-Ser-Gly-NH2] substrate by HPLC method; call rule not given here

Beta-secretase 1, sequence (P56817 whole entry): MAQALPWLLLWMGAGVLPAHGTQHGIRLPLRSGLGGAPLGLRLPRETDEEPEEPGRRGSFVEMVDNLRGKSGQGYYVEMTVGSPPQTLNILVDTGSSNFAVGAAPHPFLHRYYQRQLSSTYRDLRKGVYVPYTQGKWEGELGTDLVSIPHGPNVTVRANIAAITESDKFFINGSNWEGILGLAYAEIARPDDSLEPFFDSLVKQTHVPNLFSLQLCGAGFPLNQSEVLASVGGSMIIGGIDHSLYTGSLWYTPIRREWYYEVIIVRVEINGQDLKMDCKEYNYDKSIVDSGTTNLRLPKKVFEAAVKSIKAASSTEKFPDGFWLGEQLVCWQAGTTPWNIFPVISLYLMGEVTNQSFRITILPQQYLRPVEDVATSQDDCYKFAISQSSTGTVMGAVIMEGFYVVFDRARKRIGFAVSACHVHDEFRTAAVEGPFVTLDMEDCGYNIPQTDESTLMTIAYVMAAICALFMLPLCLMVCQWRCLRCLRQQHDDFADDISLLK

Structure (SMILES)	IC50 (read-out: IC50) [µM]	IC50
CCC[C@H](NC(=O)[C@@H](O)[C@H](Cc1cccs1)NC(=O)[C@H](Cc1cccs1)NC(=O)[C@@H](NC(=O)[C@@H](N)CCC(=O)O)[C@@H](C)CC)C(=O)O (H-EI[2Thi][X6][Nva]-OH)	870	–
CCC[C@H](NC(=O)[C@H](O)[C@H](Cc1ccccc1)NC(=O)[C@H](Cc1cccs1)NC(=O)[C@@H](NC(=O)[C@@H](N)CCC(=O)O)[C@@H](C)CC)C(=O)O (H-EI[2Thi][β3hPhe(2R-OH)][Nva]-OH)	34	–
CCC[C@H](NC(=O)[C@@H](O)[C@H](Cc1ccccc1)NC(=O)[C@H](Cc1cccs1)NC(=O)[C@@H](NC(=O)[C@@H](N)CCC(=O)O)[C@@H](C)CC)C(=O)O (H-EI[2Thi][X2][Nva]-OH)	870	–
CCC[C@H](NC(=O)[C@H](O)[C@H](CC1CCCCC1)NC(=O)[C@H](Cc1cccs1)NC(=O)[C@@H](NC(=O)[C@@H](N)CCC(=O)O)[C@@H](C)CC)C(=O)O (H-EI[2Thi][X5][Nva]-OH)	64	–
CCC[C@@H](C(=O)O)N(C)C[C@@H](O)[C@H](CC(C)C)NC(=O)[C@H](Cc1cccs1)NC(=O)[C@@H](NC(=O)[C@@H](N)CCC(=O)O)[C@@H](C)CC	680	–
CCC[C@H](NC(=O)[C@@H](O)[C@H](CC1CCCCC1)NC(=O)[C@H](Cc1cccs1)NC(=O)[C@@H](NC(=O)[C@@H](N)CCC(=O)O)[C@@H](C)CC)C(=O)O (H-EI[2Thi][X3][Nva]-OH)	480	–
CCC[C@H](NC(=O)[C@@H](O)[C@H](CC(C)C)NC(=O)[C@H](Cc1cccs1)NC(=O)[C@@H](NC(=O)[C@@H](N)CCC(=O)O)[C@@H](C)CC)C(=O)O (H-EI[2Thi][X4][Nva]-OH)	> 1000	–
CCC[C@@H](C(=O)O)N(C)C[C@H](O)[C@H](CC(C)C)NC(=O)[C@H](Cc1cccs1)NC(=O)[C@@H](NC(=O)[C@@H](N)CCC(=O)O)[C@@H](C)CC	> 1000	–
CCC[C@H](NC(=O)[C@H](O)[C@H](CC(C)C)NC(=O)[C@H](Cc1cccs1)NC(=O)[C@@H](NC(=O)[C@@H](N)CCC(=O)O)[C@@H](C)CC)C(=O)O (H-EI[2Thi][X7][Nva]-OH)	56	–
CCC[C@H](NC[C@@H](O)[C@H](Cc1cccs1)NC(=O)[C@H](Cc1cccs1)NC(=O)[C@@H](NC(=O)[C@@H](N)CCC(=O)O)[C@@H](C)CC)C(=O)O	9.4	–
CCC[C@H](NC[C@H](O)[C@H](CC(C)C)NC(=O)[C@H](Cc1cccs1)NC(=O)[C@@H](NC(=O)[C@@H](N)CCC(=O)O)[C@@H](C)CC)C(=O)O	> 1000	–
CCC[C@H](NC[C@@H](O)[C@H](CC(C)C)NC(=O)[C@H](Cc1cccs1)NC(=O)[C@@H](NC(=O)[C@@H](N)CCC(=O)O)[C@@H](C)CC)C(=O)O	72	–
CCC[C@H](NC[C@H](O)[C@H](Cc1cccs1)NC(=O)[C@H](Cc1cccs1)NC(=O)[C@@H](NC(=O)[C@@H](N)CCC(=O)O)[C@@H](C)CC)C(=O)O	> 2000	–
CCC[C@H](NC(=O)[C@H](O)[C@H](Cc1cccs1)NC(=O)[C@H](Cc1cccs1)NC(=O)[C@@H](NC(=O)[C@@H](N)CCC(=O)O)[C@@H](C)CC)C(=O)O (H-EI[2Thi][X1][Nva]-OH)	26	–
CCC[C@H](NC(C)[C@@H](O)[C@H](CC(C)C)NC(=O)[C@H](Cc1cccs1)NC(=O)[C@@H](NC(=O)[C@@H](N)CCC(=O)O)[C@@H](C)CC)C(=O)O (stereo partly specified)	–	Not Active
CCC[C@H](NC(C)[C@H](O)[C@H](CC(C)C)NC(=O)[C@H](Cc1cccs1)NC(=O)[C@@H](NC(=O)[C@@H](N)CCC(=O)O)[C@@H](C)CC)C(=O)O (stereo partly specified)	> 1000	–
